Results taken from patent US20250144125A1 (priority 2021, published 2025).
Like-named read-outs stand apart in the source and are kept apart here. Marks after values point to notes of the source that are not given here.

Experiments:
in vitro [1] = details: African green monkey
Vero cells = details: African green monkey
in vitro [2] = details: dog
[3] = tested on: tacaribe virus (TRVL11573 strain); assay: microbe, parasite or virus in culture; type: cell-based; details: for EC50: read-out: Tacaribe virus EC50 TRVL 11573 strain
[4] = tested on: influenza A (H1N1) virus (California/07/2009 strain); assay: microbe, parasite or virus in culture; type: cell-based
[5] = Cytotoxicity in the human norovirus replicon assay (HG23 cells); details: human, HG23 Nov replicon cells
in vitro [6] = details: African green monkey; remark: listed apart in the source
MERS-CoV (EMC strain) = assay: microbe, parasite or virus in culture; type: cell-based
[7] = tested on: chikungunya virus (S27 strain); assay: microbe, parasite or virus in culture; type: cell-based
[8] = tested on: measles virus (CC strain); assay: microbe, parasite or virus in culture; type: cell-based
[9] = tested on: dengue virus 2 (New Guinea C strain); assay: microbe, parasite or virus in culture; type: cell-based
[10] = tested on: enterovirus-71 (Tainan/4643/98 strain); assay: organism not typed; type: cell-based
[11] = tested on: human norovirus genogroup I NoV (Norwalk virus replicon) in HG23 cells; assay: Human norovirus antiviral assay, qRT PCR in HG23 NoV replicon cells; type: cell-based; details: for EC50: Norwalk virus
in vitro [12] = details: human
[13] = tested on: yellow fever virus (YFV 17D strain); assay: microbe, parasite or virus in culture; type: cell-based
[14] = Mammarenavirus tacaribeense, Vero
[15] = Influenza A virus, H1N1, MDCK, read-out: EC50 California/07/2009 strain
[16] = read-out: Yellow fever virus CC50 Huh7, Neutral Red, YFV screen
[17] = read-out: Yellow fever virus CC50 Huh7, Visual, YFV screen
[18] = Middle East respiratory syndrome-related coronavirus, Vero 76, read-out: MERS-CoV EC50 EMC strain
[19] = read-out: MERS-CoV EC50 EMC strain
[20] = Chikungunya virus, Vero 76, read-out: EC50 chikungunya virus
[21] = Measles morbillivirus, Vero 76, read-out: Measles EC50 CC strain
[22] = read-out: Measles EC50 CC strain
[23] = Dengue virus, Huh-7, read-out: EC50 dengue virus 2
[24] = Vero 76, read-out: EC50 enterovirus-71
[25] = HG23 Nov replicon cells, qRT PCR intracellular RNA, read-out: EC50 human norovirus
[26] = read-out: MERS-CoV CC50 Vero 76, Neutral Red, MERS-CoV screen
[27] = Yellow fever virus, Huh-7, read-out: Yellow fever virus EC50 YFV 17D strain
[28] = read-out: Yellow fever virus EC50 YFV 17D strain
[29] = read-out: EC50 chikungunya virus

Row | Compound | CC50 (in vitro [1]; Tacaribe virus CC50 Vero) | CC50 (in vitro [2]; CC50 MDCK) | EC50 [3, 14] | EC50 [4, 15] | CC50 at 3 days [5] [µM] | CC50 (in vitro [6]; MERS-CoV CC50 Vero 76) [µM] | CC50 (Huh7 cells; [16]) [µM] | EC50 (MERS-CoV (EMC strain); [18]) [µM] | EC50 (MERS-CoV (EMC strain); [19]) [µM] | EC50 [7, 20] [µM] | EC50 [8, 21] | EC50 [8, 22] [µM] | EC50 [9, 23] [µM] | EC50 ([9]; read-out: EC50 dengue virus 2) [µM] | EC50 [10, 24] [µM] | EC50 [11, 25] [µM] | CC50 (Vero 76 cells; [26]) [µM] | CC50 (in vitro [12]; Yellow fever virus CC50 Huh7) [µM] | EC50 [13, 27] [µM] | CC50 (Huh7 cells; human) [µM] | other results
1 | NC(=O)c1ncn([C@@H]2O[C@H](CO)[C@@H](O)[C@H]2O)n1 [Ribavirin, ribavirin, reference compound] | > 1000 µg/mL | > 1000 µg/mL | 9.2 µg/mL | 2.2 µg/mL |  |  |  |  |  |  |  |  |  |  |  |  |  |  |  |  | CC50 (in vitro [1]; CC50): > 2950 µM; CC50 (Vero cells): > 3600 µM; Tacaribe virus CC50 Vero (Vero cells): 970^d μg/mL; CC50 (in vitro [2]; CC50): > 4100 µM; Tacaribe virus EC50 TRVL 11573 strain [3]: 7.8^d μg/mL; EC50 California/07/2009 strain [4]: 2.4^d μg/mL; EC50 ([4]; Influenza A virus, H1N1, MDCK, read-out: EC50 Influenza A (H1N1)): 10.2 µM
2 | C=Cc1cn([C@@H]2O[C@H](CO)[C@@H](O)[C@H]2O)c2ncnc(CC)c12 [3.1m, 6-Ethyl-7-vinyl-9-β-D-ribofuranosyl-7-deazapurine] |  | > 100 µM | > 100 µM | > 100 µM | 14.6 | > 100 | 20 | 22 | 14 | > 100 | 25 µM | 43 | 32 | > 19 | > 100 | 3.35 | > 100 |  |  |  | CC50 (Huh7 cells; [17]): 4.6 µM; activity against human norovirus in words [11]: no promising activity
3 | C[C@@]1(O)[C@H](O)[C@@H](CO)O[C@H]1n1ccc(N)nc1=O [2′C Methyl Cytidine, 2′-C-Methylcytidine, reference compound] |  |  |  |  | > 25 |  |  |  |  |  |  |  |  |  |  | 1.57 |  |  |  |  | 
4 | C=C(OCC)c1ncnc2c1ccn2[C@@H]1O[C@H](CO)[C@@H](O)[C@H]1O [3.1b, 6-(1-Ethoxyvinyl)-9-β-D-ribofuranosyl-7-deazapurine] | 100 µM |  | 44 µM |  | 60.5 | 52 | 22 |  |  |  | > 100 µM | 64 |  |  | > 84 |  | 86 | 28 | > 28 | 8.6 | CC50 (in vitro [6]; Measles CC50 Vero 76): > 100 µM; CC50 (Vero cells): 99 µM; CC50 (in vitro [12]; CC50): 8.5 µM; EC50 [13, 28]: > 22 µM; activity against MERS-CoV in words (MERS-CoV (EMC strain)): moderately active with low selectivity index; EC50 [3]: 39 µM; EC50 ([10]; read-out: EC50 enterovirus-71): 90 µM; EC50 ([11]; HG23, read-out: EC50 human norovirus): 0.007 µM; CC50 (Vero 76 cells; African green monkey): 100 µM
5 | CCc1ncnc2c1c(C#CC1CC1)cn2[C@@H]1O[C@H](CO)[C@@H](O)[C@H]1O [3.1n, 6-Ethyl-7-cyclopropylethynyl-9-β-D-ribofuranosyl-7-deazapurine] | > 100 µM | > 100 µM | > 100 µM | > 100 µM | 0.342 | 100 | 21 | 10 | 5.7 | > 100 | 64 µM | 33 | 13 | > 8.3 | > 100 | 0.062 | > 100 |  |  |  | CC50 (in vitro [6]; CC50): > 100 µM; CC50 (in vitro [6]; Measles CC50 Vero 76): > 100 µM; CC50 (Huh7 cells; [17]): 100 µM; activity against MERS-CoV in words (MERS-CoV (EMC strain)): moderately active with low selectivity index; activity against human norovirus in words [11]: no promising activity
6 | CCc1ncnc2c1c(I)cn2[C@@H]1O[C@H](CO)[C@@H](O)[C@H]1O [3.1o, 6-Ethyl-7-iodo-9-β-D-ribofuranosyl-7-deazapurine] |  | > 100 µM | > 100 µM | > 100 µM |  | > 100 | 85 | > 100 | 68 | > 100 | 100 µM | > 100 | > 68 | > 64 | > 100 |  | > 100 | > 100 | > 100 | 64 | CC50 (in vitro [12]; CC50): 68 µM; EC50 [13, 28]: > 85 µM
7 | CCc1ncnc2c1c(Cl)cn2[C@@H]1O[C@H](CO)[C@@H](O)[C@H]1O [3.1p, 6-Ethyl-7-chloro-9-β-D-ribofuranosyl-7-deazapurine] |  | > 100 µM | 100 µM | > 100 µM |  | > 100 | > 100 | 100 | > 100 | > 100 | 100 µM | > 100 | 32 | > 38 | > 100 |  | > 100 | > 100 | > 100 | 38 | CC50 (in vitro [12]; CC50): 68 µM; EC50 [3]: > 100 µM
8 | CCc1ncnc2c1c(Br)cn2[C@@H]1O[C@H](CO)[C@@H](O)[C@H]1O [3.1q, 6-Ethyl-7-bromo-9-β-D-ribofuranosyl-7-deazapurine] |  | > 100 µM | > 100 µM | > 100 µM |  | > 100 | > 100 | > 100 |  |  | > 100 µM |  | > 68 | > 47 | > 100 |  | > 100 | > 100 | > 100 | 47 | CC50 (in vitro [12]; CC50): 68 µM
9 | Nc1ccn([C@@H]2O[C@H](CO)[C@@H](O)[C@H]2F)c(=O)n1 [2′-Fluoro-2′-deoxycytidine, 2′-fluoro-2′-deoxycytidine, reference compound] |  |  |  |  |  |  |  |  |  |  | 1 µg/mL |  |  |  |  |  |  |  |  |  | CC50 (in vitro [6]; Measles CC50 Vero 76): > 100 µg/mL; Measles EC50 CC strain [8]: 0.95^d μg/mL
10 | C#Cc1cn([C@@H]2O[C@H](CO)[C@@H](O)[C@H]2O)c2ncnc(CC)c12 [3.1l, 6-Ethyl-7-ethynyl-9-β-D-ribofuranosyl-7-deazapurine] |  | > 100 µM | > 100 µM | 0.34 µM | 0.455 | > 100 | 92 |  |  | > 100 | 72 µM | > 100 | > 100 | > 51 | > 100 | 0.393 | > 100 | > 100 | > 100 | 51 | EC50 [13, 28]: > 92 µM; EC50 ([4]; read-out: EC50 California/07/2009 strain): 0.52 µM; activity against human norovirus in words [11]: no promising activity
11 | OC[C@H]1O[C@@H](n2ccc3c(C#Cc4ccc(F)cc4)ncnc32)[C@H](O)[C@@H]1O [3.1h, 6-((4-Fluorophenyl)ethynyl)-9-β-D-ribofuranosyl-7-deazapurine] | 24 µM |  | 24 µM |  | 38.5 | 32 | 30 | > 32 | > 29 | > 36 | 6.2 µM | 7.1 | > 32 | > 29 | > 39 | < 0.001 | 29 | 32 | 2.2 |  | CC50 (in vitro [6]; CC50): 36 µM; CC50 (in vitro [6]; Measles CC50 Vero 76): 28 µM; CC50 (Vero cells): 23 µM; EC50 [13, 28]: 2.3 µM; EC50 [7, 29]: 32 µM; EC50 [3]: > 23 µM; EC50 ([10]; read-out: EC50 enterovirus-71): > 46 µM; activity against human norovirus in words [11]: low nanomolar activity and high selectivity
12 | OC[C@H]1O[C@@H](n2ccc3c(C#Cc4cccc(F)c4)ncnc32)[C@H](O)[C@@H]1O [3.1i, 6-((3-Fluorophenyl)ethynyl)-9-β-D-ribofuranosyl-7-deazapurine] | 12 µM |  | > 12 µM |  |  | 32 | 30 | > 32 |  | > 32 | 3.2 µM | 3.6 | 2.6 | 2.7 | > 32 |  |  | 32 | 1.2 | 22 | CC50 (in vitro [6]; Measles CC50 Vero 76): 24 µM; CC50 (Vero cells): 11 µM; CC50 (in vitro [12]; CC50): 24 µM; EC50 [13, 28]: 0.85 µM; EC50 [7, 29]: > 30 µM; EC50 [3]: > 11 µM; EC50 ([10]; read-out: EC50 enterovirus-71): > 28 µM
